Columns and labels:
Format in all cases: in vivo
[1] = tested on: Chilo suppressalis; assay: Example B1: Chilo suppressalis (striped rice stemborer), artificial diet, L2 larvae; conditions: 144 h, application rate of 200 ppm, 6 days after infestation, read-out: control in at least one of the three categories (mortality, anti-feedant effect, or growth inhibition)
Experimental: 24-well microtiter plates with artificial diet were treated with aqueous test solutions prepared from 10,000 ppm DMSO stock solutions by pipetting. After drying, the plates were infested with L2 larvae (6-8 per well). The samples were assessed for mortality, anti-feeding effect, and growth inhibition in comparison to untreated samples 6 days after infestation. Control of Chilo suppressalis by a test sample is given when at least one of the categories mortality, anti-feedant effect, and growth inhibition is higher than the untreated sample.

[2] = tested on: Plutella xylostella; assay: Example B4: Plutella xylostella (diamond back moth), artificial diet, eggs; conditions: for mortality at 50 ppm: Concentration 50 ppm, Plutella xylostella (Example B4); for percent control (mortality or growth inhibition) at 200 ppm: Plutella xylostella, 192 h, application rate of 200 ppm, 8 days after infestation, read-out: control in at least one of the two categories (mortality or growth inhibition)
Experimental: 24-well microtiter plates with artificial diet were treated with aqueous test solutions prepared from 10′000 ppm DMSO stock solutions by pipetting. After drying, Plutella eggs were pipetted through a plastic stencil onto a gel blotting paper and the plate was closed with it. The samples were assessed for mortality and growth inhibition in comparison to untreated samples 8 days after infestation.

[3] = tested on: Spodoptera littoralis; assay: Example B5: Spodoptera littoralis (Egyptian cotton leaf worm), cotton leaf discs, L1 larvae; conditions: foliar, 72 h, application rate of 200 ppm, 3 days after infestation, read-out: control in at least one of the three categories (mortality, anti-feedant effect, or growth inhibition)
Experimental: Cotton leaf discs were placed onto agar in 24-well microtiter plates and sprayed with aqueous test solutions prepared from 10,000 ppm DMSO stock solutions. After drying the leaf discs were infested with five L1 larvae. The samples were assessed for mortality, anti-feeding effect, and growth inhibition in comparison to untreated samples 3 days after infestation. Control of Spodoptera littoralis by a test sample is given when at least one of the categories mortality, anti-feedant effect, and growth inhibition is higher than the untreated sample.

[4] = tested on: Diabrotica balteata; assay: Example B2: Diabrotica balteata (corn root worm), maize sprouts, L2 larvae; conditions: for percent control (mortality or growth inhibition) at 200 ppm: Diabrotica balteata, 96 h, application rate of 200 ppm, 4 days after infestation, read-out: control in at least one of the two categories (mortality or growth inhibition); for mortality at 50 ppm: Concentration 50 ppm, Diabrotica balteata (Example B32)
Experimental: Maize sprouts placed onto an agar layer in 24-well microtiter plates were treated with aqueous test solutions prepared from 10,000 ppm DMSO stock solutions by spraying. After drying, the plates were infested with L2 larvae (6 to 10 per well). The samples were assessed for mortality and growth inhibition in comparison to untreated samples 4 days after infestation.

| Structure (SMILES) | percent control (mortality, anti-feedant effect or growth inhibition) at 200 ppm [1] | mortality at 50 ppm [2] | percent control (mortality or growth inhibition) at 200 ppm [2] | percent control (mortality, anti-feedant effect or growth inhibition) at 200 ppm [3] | percent control (mortality or growth inhibition) at 200 ppm [4] | mortality at 50 ppm [4] |
| --- | --- | --- | --- | --- | --- | --- |
| CC(NC(=O)c1cc(Cl)cc(C(F)(F)F)c1)c1nccnc1-c1cnccn1 (stereo not shown) [Compound P6, 3-chloro-N-[1-(3-pyrazin-2-ylpyrazin-2-yl)ethyl]-5-(trifluoromethyl)benzamide] | ≥ 80% | 100% | ≥ 80% | ≥ 80% |  |  |
| CC(c1nccnc1-c1cnccn1)N(C)C(=O)c1cc(Cl)cc(C(F)(F)F)c1 (stereo not shown) [Compound P30, 3-chloro-N-methyl-N-[1-(3-pyrazin-2-ylpyrazin-2-yl)ethyl]-5-(trifluoromethyl)benzamide] | ≥ 80% |  | ≥ 80% |  | ≥ 80% |  |
| CC(NC(=O)c1cc(C(F)(F)F)cc(S(C)(=O)=O)c1)c1nccnc1-c1cnc(Cl)cn1 (stereo not shown) [Compound P35, N-[1-[3-(5-chloropyrazin-2-yl)pyrazin-2-yl]ethyl]-3-methylsulfonyl-5-(trifluoromethyl)benzamide] | ≥ 80% |  | ≥ 80% | ≥ 80% | ≥ 80% |  |
| C[C@H](NC(=O)c1cc(C(F)F)cc(C(F)(F)F)c1)c1nccnc1-c1cnccn1 [Compound E8, 3-(difluoromethyl)-N-[(1S)-1-(3-pyrazin-2-ylpyrazin-2-yl)ethyl]-5-(trifluoromethyl)benzamide] | ≥ 80% |  | ≥ 80% | ≥ 80% | ≥ 80% |  |
| C[C@H](NC(=O)c1cc(I)cc(I)c1)c1nccnc1-c1cnccn1 [Compound E5, 3,5-diiodo-N-[(1S)-1-(3-pyrazin-2-ylpyrazin-2-yl)ethyl]benzamide] |  |  | ≥ 80% | ≥ 80% | ≥ 80% |  |
| CC(NC(=O)c1cc(C(F)F)cc(C(F)(F)F)c1)c1nccnc1-c1ncccn1 (stereo not shown) [P22 of WO 2020/070049, reference compound] |  |  |  |  |  | 80% |
| CC(NC(=O)c1cc(Br)nc(C2(C#N)CC2)c1)c1nccnc1-c1cnccn1 (stereo not shown) [Compound P3, 2-bromo-6-(1-cyanocyclopropyl)-N-[1-(3-pyrazin-2-ylpyrazin-2-yl)ethyl]pyridine-4-carboxamide] | ≥ 80% |  | ≥ 80% | ≥ 80% | ≥ 80% |  |
| CC(NC(=O)c1cc(Cl)nc(C2(C#N)CC2)c1)c1nccnc1-c1cnccn1 (stereo not shown) [Compound P27, 2-chloro-6-(1-cyanocyclopropyl)-N-[1-(3-pyrazin-2-ylpyrazin-2-yl)ethyl]pyridine-4-carboxamide] | ≥ 80% |  | ≥ 80% | ≥ 80% | ≥ 80% |  |
| CC(NC(=O)c1cc(C2CC2)cc(C(F)(F)F)c1)c1nccnc1-c1cnccn1 (stereo not shown) [Compound P19, 3-cyclopropyl-N-[1-(3-pyrazin-2-ylpyrazin-2-yl)ethyl]-5-(trifluoromethyl)benzamide] | ≥ 80% | 100% | ≥ 80% |  | ≥ 80% |  |
| CC(NC(=O)c1cc(Cl)cc(C(F)(F)F)c1)c1nccnc1-c1ccccn1 (stereo not shown) [Example 1 of WO 2021/068179, reference compound] |  | 0% |  |  |  |  |
| C[C@@H](c1nccnc1-c1cnccn1)N(C)C(=O)c1cc(C(F)F)cc(C(F)(F)F)c1 [Compound E13, 3-(difluoromethyl)-N-methyl-N-[(1S)-1-(3-pyrazin-2-ylpyrazin-2-yl)ethyl]-5-(trifluoromethyl)benzamide] |  |  |  | ≥ 80% | ≥ 80% |  |
| CC(NC(=O)c1cc(Cl)cc(SC(F)(F)F)c1)c1nccnc1-c1cnccn1 (stereo not shown) [Compound P28, 3-chloro-N-[1-(3-pyrazin-2-ylpyrazin-2-yl)ethyl]-5-(trifluoromethylsulfanyl)benzamide] |  |  | ≥ 80% | ≥ 80% | ≥ 80% |  |
| CC(NC(=O)c1cc(Cl)cc(S(=O)(=O)C(F)(F)F)c1)c1nccnc1-c1cnccn1 (stereo not shown) [Compound P33, 3-chloro-N-[1-(3-pyrazin-2-ylpyrazin-2-yl)ethyl]-5-(trifluoromethylsulfonyl)benzamide] | ≥ 80% |  | ≥ 80% |  |  |  |
| C[C@H](NC(=O)c1cc(Br)cc(Br)c1)c1nccnc1-c1cnccn1 [Compound E6, 3,5-dibromo-N-[(1S)-1-(3-pyrazin-2-ylpyrazin-2-yl)ethyl]benzamide] |  |  | ≥ 80% | ≥ 80% | ≥ 80% |  |
| CC(NC(=O)c1cc(Br)cc(Br)c1)c1nccnc1-c1cnccn1 (stereo not shown) [Compound P15, 3,5-dibromo-N-[1-(3-pyrazin-2-ylpyrazin-2-yl)ethyl]benzamide] |  |  | ≥ 80% |  | ≥ 80% |  |
| CC(NC(=O)c1cc(Cl)cc(OC(F)(F)F)c1)c1nccnc1-c1cnccn1 (stereo not shown) [Compound P9, 3-chloro-N-[1-(3-pyrazin-2-ylpyrazin-2-yl)ethyl]-5-(trifluoromethoxy)benzamide] | ≥ 80% |  | ≥ 80% |  | ≥ 80% |  |
| CC(NC(=O)c1cc(C(F)(F)F)cc(S(C)(=O)=O)c1)c1nccnc1-c1cnc(C#N)cn1 (stereo not shown) [Compound P39, N-[1-[3-(5-cyanopyrazin-2-yl)pyrazin-2-yl]ethyl]-3-methylsulfonyl-5-(trifluoromethyl)benzamide] | ≥ 80% |  | ≥ 80% | ≥ 80% |  |  |
| CC(NC(=O)c1cc(C(F)(F)F)cc(S(=O)(=O)C(F)(F)F)c1)c1nccnc1-c1cnccn1 (stereo not shown) [Compound P22, N-[1-(3-pyrazin-2-ylpyrazin-2-yl)ethyl]-3-(trifluoromethyl)-5-(trifluoromethylsulfonyl)benzamide] | ≥ 80% |  | ≥ 80% |  |  |  |
| C[C@@H](c1nccnc1-c1cnccn1)N(C)C(=O)c1cc(I)cc(C(F)(F)F)c1 [Compound E9, 3-iodo-N-methyl-N-[(1S)-1-(3-pyrazin-2-ylpyrazin-2-yl)ethyl]-5-(trifluoromethyl)benzamide] |  |  |  | ≥ 80% | ≥ 80% |  |
| CC(NC(=O)c1cc(Br)cc(Br)c1)c1nccnc1-c1cnc(Cl)cn1 (stereo not shown) [Compound P36, 3,5-dibromo-N-[1-[3-(5-chloropyrazin-2-yl)pyrazin-2-yl]ethyl]benzamide] |  |  | ≥ 80% | ≥ 80% | ≥ 80% |  |
| CC(NC(=O)c1cc(C2CC2)cc(C(F)(F)F)c1)c1nccnc1-c1ccccn1 (stereo not shown) [P33 of WO 2020/201398, reference compound] |  | 50% |  |  |  |  |
| CC(NC(=O)c1cc(C(F)(F)F)cc(C2(C#N)CC2)c1)c1nccnc1-c1ncccn1 (stereo not shown) [P25 of WO 2020/201398, reference compound] |  |  |  |  |  | 50% |
| CC(NC(=O)c1cc(I)cc(C(F)(F)F)c1)c1nccnc1-c1cnccn1 (stereo not shown) [Compound P23, 3-iodo-N-[1-(3-pyrazin-2-ylpyrazin-2-yl)ethyl]-5-(trifluoromethyl)benzamide] |  |  | ≥ 80% | ≥ 80% | ≥ 80% |  |
| C[C@@H](c1nccnc1-c1cnccn1)N(C)C(=O)c1cc(I)cc(I)c1 [Compound E10, 3,5-diiodo-N-methyl-N-[(1S)-1-(3-pyrazin-2-ylpyrazin-2-yl)ethyl]benzamide] |  |  |  | ≥ 80% | ≥ 80% |  |

From patent publication US20240287047A1, “PESTICIDALLY ACTIVE DIAZINE-AMIDE COMPOUNDS” (SYNGENTA CROP PROTECTION AG, priority 2021, published 2024)
